Assay results as given in paper PMC4839570, “Novel Anthra[1,2-c][1,2,5]Thiadiazole-6,11-Diones as Promising Anticancer Lead Compounds: Biological Evaluation, Characterization & Molecular Targets Determination” (PLoS ONE, 2016).
Like-named read-outs stand apart in the source and are kept apart here.

Experiments:
CCRF-CEM = test: NCI-60 cytotoxicity screen; format: cell-based
RPMI-8226 = test: NCI-60 cytotoxicity screen; format: cell-based
NCI-H226 = test: NCI-60 cytotoxicity screen; format: cell-based
NCI-H23 = test: NCI-60 cytotoxicity screen; format: cell-based
NCI-H322M = test: NCI-60 cytotoxicity screen; format: cell-based
COLO 205 = test: NCI-60 cytotoxicity screen; format: cell-based
HCC-2998 = test: NCI-60 cytotoxicity screen; format: cell-based
SF-295 = test: NCI-60 cytotoxicity screen; format: cell-based
SNB-75 = test: NCI-60 cytotoxicity screen; format: cell-based
LOX IMVI = test: NCI-60 cytotoxicity screen; format: cell-based
MDA-MB-435 = test: NCI-60 cytotoxicity screen; format: cell-based
SK-MEL-28 = test: NCI-60 cytotoxicity screen; format: cell-based
SK-MEL-5 = test: NCI-60 cytotoxicity screen; format: cell-based
UACC-257 = test: NCI-60 cytotoxicity screen; format: cell-based
UACC-62 = test: NCI-60 cytotoxicity screen; format: cell-based
OVCAR-4 = test: NCI-60 cytotoxicity screen; format: cell-based
CAKI-1 = test: NCI-60 cytotoxicity screen; format: cell-based
HS 578T = test: NCI-60 cytotoxicity screen; format: cell-based; details: Homo sapiens
T-47D = test: NCI-60 cytotoxicity screen; format: cell-based
HBC-4 = test: JFCR-39 cytotoxicity screen; format: cell-based
HBC-5 = test: JFCR-39 cytotoxicity screen; format: cell-based
MDA-MB-231 = test: JFCR-39 cytotoxicity screen; format: cell-based
HCC2998 = test: JFCR-39 cytotoxicity screen; format: cell-based
HCT-116 = test: JFCR-39 cytotoxicity screen; format: cell-based
A549 = test: JFCR-39 cytotoxicity screen; format: cell-based
DMS114 = test: JFCR-39 cytotoxicity screen; format: cell-based
OVCAR-8 = test: JFCR-39 cytotoxicity screen; format: cell-based
ACHN = test: JFCR-39 cytotoxicity screen; format: cell-based
MKN28 = test: JFCR-39 cytotoxicity screen; format: cell-based
MKN45 = test: JFCR-39 cytotoxicity screen; format: cell-based
OVCAR-3 = test: cells; details: Homo sapiens, OVCAR-3, read-out: mean log10 of the GI50 values (converted)
[1] = Homo sapiens, Fig 7, read-out: mean log10 of the GI50 values (converted)
[2] = Homo sapiens, five-dose, read-out: GI50
[3] = Homo sapiens, five-dose, read-out: LC50 (the source's name)
[4] = Homo sapiens, read-out: LC50 (the source's name)

For `O=C1c2ccccc2C(=O)c2c1cc(Cl)c1nsnc21` [NSC757963], the GI50 (CCRF-CEM; [1]) was 0.389 µM, the GI50 (CCRF-CEM; [2]) was 0.33 µM and the CC50 (CCRF-CEM; [3]) was greater than 100 µM. The TGI (CCRF-CEM; five-dose) was 2.37 µM, the GI50 (RPMI-8226; [1]) was 2.88 µM and the GI50 (RPMI-8226; [2]) was 3.15 µM. For the same compound, the CC50 (RPMI-8226; [3]) was greater than 100 µM, the TGI (RPMI-8226; five-dose) was 53.2 µM and the GI50 (NCI-H226; [1]) was 16.2 µM. It also gave an LC50 (concentration killing 50% of cells) (NCI-H226; Homo sapiens, five-dose) of 53.9 µM, a GI50 (NCI-H226; [2]) of 14.9 µM and a TGI (NCI-H226; five-dose) of 28.3 µM. For the same compound, the GI50 (NCI-H23; [1]) was 3.63 µM, the GI50 (NCI-H23; [2]) was 3.62 µM and the CC50 (NCI-H23; [3]) was 74.6 µM. The TGI (NCI-H23; five-dose) was 17.2 µM, the GI50 (NCI-H322M; [1]) was 30.9 µM and the GI50 (NCI-H322M; [2]) was 18.6 µM. For the same compound, the CC50 (NCI-H322M; [3]) was 71 µM, the TGI (NCI-H322M; five-dose) was 36.3 µM and the GI50 (COLO 205; Homo sapiens, COLO205, Fig 7, read-out: mean log10 of the GI50 values (converted)) was 14.1 µM. The GI50 (COLO 205; [2]) was 16.9 µM, the CC50 (COLO 205; [3]) was 57.9 µM and the TGI (COLO 205; five-dose) was 31.2 µM. It also gave a GI50 (HCC-2998; [1]) of 17 µM, an LC50 (concentration causing 50% net cell kill) (HCC-2998; Homo sapiens, five-dose) of 56.6 µM and a GI50 (HCC-2998; [2]) of 14.1 µM. The TGI (HCC-2998; five-dose) was 28.2 µM, the GI50 (SF-295; [1]) was 17.4 µM and the GI50 (SF-295; [2]) was 16.6 µM. It also gave a CC50 (SF-295; [3]) of 62.9 µM, a TGI (SF-295; five-dose) of 32.3 µM and a GI50 (SNB-75; [1]) of 1.91 µM. It also gave a GI50 (SNB-75; [2]) of 2.17 µM, a CC50 (SNB-75; [3]) of 69.1 µM and a TGI (SNB-75; five-dose) of 6.89 µM. For the same compound, the GI50 (LOX IMVI; Homo sapiens, LOXIMVI, Fig 7, read-out: mean log10 of the GI50 values (converted)) was 1.74 µM, the GI50 (LOX IMVI; [2]) was 1.91 µM and the CC50 (LOX IMVI; [3]) was 19.7 µM. For the same compound, the TGI (LOX IMVI; five-dose) was 5.21 µM, the GI50 (MDA-MB-435; [1]) was 1.95 µM and the GI50 (MDA-MB-435; [2]) was 1.99 µM. It also gave a CC50 (MDA-MB-435; [3]) of 7.49 µM, a TGI (MDA-MB-435; five-dose) of 3.86 µM and a GI50 (SK-MEL-28; [1]) of 5.37 µM. For the same compound, the GI50 (SK-MEL-28; [2]) was 9.52 µM, the CC50 (SK-MEL-28; [3]) was 47 µM and the TGI (SK-MEL-28; five-dose) was 21.5 µM. For the same compound, the GI50 (SK-MEL-5; [1]) was 6.92 µM, the GI50 (SK-MEL-5; [2]) was 8.48 µM and the CC50 (SK-MEL-5; [3]) was 46.2 µM. The TGI (SK-MEL-5; five-dose) was 21.0 µM, the GI50 (UACC-257; [1]) was 7.76 µM and the GI50 (UACC-257; [2]) was 14.5 µM. It also gave a CC50 (UACC-257; [3]) of 53.5 µM, a TGI (UACC-257; five-dose) of 27.8 µM and a GI50 (UACC-62; [1]) of 3.47 µM. It also gave a GI50 (UACC-62; [2]) of 4.43 µM, a CC50 (UACC-62; [3]) of 41.8 µM and a TGI (UACC-62; five-dose) of 17.0 µM. For the same compound, the GI50 (OVCAR-4; [1]) was 1.66 µM, the GI50 (OVCAR-4; [2]) was 1.46 µM and the CC50 (OVCAR-4; [3]) was 5.5 µM. It also gave a TGI (OVCAR-4; five-dose) of 2.83 µM, a GI50 (CAKI-1; [1]) of 7.08 µM and a GI50 (CAKI-1; [2]) of 12.3 µM. For the same compound, the CC50 (CAKI-1; [3]) was 58.8 µM, the TGI (CAKI-1; five-dose) was 26.8 µM and the GI50 (HS 578T; Hs-578T, HS578T, Fig 7, read-out: mean log10 of the GI50 values (converted)) was 2.51 µM. The GI50 (HS 578T; HS 578T, five-dose, read-out: GI50) was 2.38 µM, the CC50 (HS 578T; HS 578T, five-dose, read-out: LC50 (the source's name)) was greater than 100 µM and the GI50 (T-47D; Homo sapiens, T47D, Fig 7, read-out: mean log10 of the GI50 values (converted)) was 0.912 µM. For the same compound, the GI50 (T-47D; Homo sapiens, T47D, five-dose, read-out: GI50) was 1.97 µM, the CC50 (T-47D; Homo sapiens, T47D, five-dose, read-out: LC50 (the source's name)) was greater than 100 µM and the TGI (T-47D; five-dose) was 4.56 µM. It also gave a TGI (HBC-4) of 3.1 µM, a GI50 (HBC-4; Homo sapiens, HBC4) of 1.7 µM and a CC50 (HBC-4; Homo sapiens, HBC4, read-out: LC50 (the source's name)) of 5.6 µM. The TGI (HBC-5) was 4.1 µM, the GI50 (HBC-5; Homo sapiens, HBC5) was 2.1 µM and the CC50 (HBC-5; Homo sapiens, HBC5, read-out: LC50 (the source's name)) was 8.3 µM. For the same compound, the TGI (MDA-MB-231) was 2.9 µM, the GI50 (MDA-MB-231; Homo sapiens) was 1.3 µM and the CC50 (MDA-MB-231; [4]) was 6.4 µM. For the same compound, the TGI (HCC2998) was 3.5 µM, the GI50 (HCC2998; Homo sapiens, HCC 2998) was 1.9 µM and the CC50 (HCC2998; Homo sapiens, HCC 2998, read-out: LC50 (the source's name)) was 6.4 µM. The TGI (HCT-116) was 4.0 µM, the GI50 (HCT-116; Homo sapiens) was 1.9 µM and the CC50 (HCT-116; [4]) was 8.3 µM. For the same compound, the TGI (A549) was 43.0 µM, the GI50 (A549; Homo sapiens) was 20 µM and the CC50 (A549; [4]) was 95 µM. The TGI (DMS114) was 2.5 µM, the GI50 (DMS114; Homo sapiens, DMS-114) was 1 µM and the CC50 (DMS114; Homo sapiens, DMS-114, read-out: LC50 (the source's name)) was 6.1 µM. For the same compound, the TGI (OVCAR-8) was 4.8 µM, the GI50 (OVCAR-8; Homo sapiens) was 2.1 µM and the CC50 (OVCAR-8; [4]) was greater than 100 µM. The TGI (ACHN) was 3.4 µM, the GI50 (ACHN; Homo sapiens) was 1.8 µM and the CC50 (ACHN; [4]) was 6.5 µM. The TGI (MKN28) was 4.4 µM, the GI50 (MKN28; Homo sapiens, MKN-28) was 2.2 µM and the CC50 (MKN28; Homo sapiens, MKN-28, read-out: LC50 (the source's name)) was 8.6 µM. The TGI (MKN45) was 5.1 µM, the GI50 (MKN45; Homo sapiens, MKN-45) was 2 µM and the CC50 (MKN45; Homo sapiens, MKN-45, read-out: LC50 (the source's name)) was 17 µM. The GI50 (OVCAR-3) was 1.86 µM.
